Source: patent US20250302848A1, “DRUG-IN-CAPSULE FORMULATIONS OF THROMBOXANE RECEPTOR ANTAGONISTS” (ATXA Therapeutics, Ltd, priority 2024, published 2025)
pIC50: −log10 of the molar value.

Tested on: human platelets
Test: inhibition of aggregation of human platelets ex vivo
Assay type: cell-based
Conditions: Platelet, read-out: IC50, inhibit aggregation of human platelets ex vivo

SMILES	pIC50
COc1ccc(-c2cccc(Oc3ccc([N+](=O)[O-])cc3S(=O)(=O)NC(=O)NC(C)(C)C)c2)cc1 [TP20]	8.00 to 9.00
CC(C)(C)NC(=O)NS(=O)(=O)c1cc(C#N)ccc1Oc1cccc(-c2ccc(OC(F)(F)F)cc2)c1 [NTP43]	8.00 to 9.00
